Measurements as given in patent US8591892B2, “FTY720 increases CD74 expression and sensitizes cancer cells to anti-CD74 antibody-mediated cell death” (The Ohio State University, priority 2011, dated 2013).
“Also recorded” adds a separate entry of the source. Like-named read-outs stand apart in the source and are kept apart here.

Tests used:
[1] = system: Jeko-1 and Mino cell lines; assay: Transmission electron microscopy of ultrastructural changes; format: cell-based, human; settings: Jeko and Mino cells; chloroquine 40 μM, FTY720 10 μM
Procedure: Monolayer cells were grown in chamber slides in medium containing chloroquine (40 μM) or FTY720 (10 μM) for 12 hours. Prior to processing, the cells were fixed for 30 min in 2.5% glutaraldehyde in 0.1 M phosphate buffer pH 7.4. […] Images were obtained with a PEI TECHNAI™ G2 Spirit Transmission Electron Microscope.
We next examined ultrastructural morphologic changes in Jeko-1 and Mino cell lines treated with FTY720 using TEM.

[2] = system: MCL cell lines (Jeko-1, Mino, UPN-1, Z-138); assay: Confocal microscopy of total cellular LC3; format: cell-based, human
[3] = system: MCL cell lines (Jeko-1, Mino, UPN-1, Z-138); assay: Immunoblot for p62; format: cell-based, human; settings: UPN-1 and Z-138 cells, 24 hours
Description: (§1) FIG. 1. […] Actin was used as loading control. […] Actin was used as loading control.

[4] = system: Jeko-1 and Mino cells; assay: Acridine orange staining, flow cytometry (lysosomal membrane permeability); format: cell-based, human; settings: 8 hours, vs untreated control
Procedure: Cells were then stained with AO (1 μg/mL) for 15 minutes. The relative changes in FL1 fluorescence were assessed by flow cytometry. Representative histograms summarizing AO fluorescence intensity of MCL treated with FTY720, chloroquine, rapamycin or combinations are shown (MFI of treated cells is normalized to the untreated controls. (C) Jeko-1 and Mino cells were treated with FTY720 at the indicated concentration in the presence or absence of cathepsin inhibitor III (5 and 10 μM). Cell death was determined by annexin V/PI staining and flow cytometry at 8 hours. Data are shown as percentage of annexin V−/PI− cells (live cells).
To assess lysosomal membrane permeability, FTY720 treated cells were incubated with acridine orange (MOLECULAR PROBES; INVITROGEN).
AO at acidic pH (i.e., lysosomal) fluoresces red, however, when AO leaks into a neutral pH (i.e., cytosolic), it causes an increase in green fluorescence that can be detected by flow cytometry.

[5] = system: MCL cell lines (Jeko-1, Mino, UPN-1, Z-138); assay: Immunoblot for LC3-I/LC3-II (autophagic flux); format: cell-based, human
Description: as §1

[6] = system: surface CD74 on Jeko-1 and Mino cells; assay: CD74-FITC staining and flow cytometry (CD74 MFI); format: cell-based, human; settings: 8 and 24 hours, vs untreated control or rapamycin
Procedure: (B) CD74 MFI of MCL cells treated with FTY720, chloroquine or rapamycin at the indicated concentrations after 8 and 24 hours. […] P values are calculated comparing FTY720, chloroquine and rapamycin treatment to the untreated control.
MCL cell lines were treated with FTY720, chloroquine (SIGMA, St Louis, Mo.) or rapamycin (CALBIOCHEM, San Diego, Calif.) for 8 and 24 hours and CD74 mean fluorescence intensity (MFI) was determined relative to a specific isotype control. After treatment, cells (1×10^6) were washed in phosphate-buffered saline (PBS), stained with CD74-FITC (BD BIOSCIENCES, San Jose, Calif.) for 15 minutes at 4° C., then rinsed in PBS and analyzed by flow cytometry (EPICS-XL™; BECKMAN COULTER, Fullerton, Calif.). A total of 10,000 events were collected and analyzed using Windows Multiple Document Interface for Flow Cytometry (WinMDI, Scripps Research Institute, San Diego, Calif.).
To determine the influence of FTY720 treatment on CD74 surface levels, Jeko-1 and Mino cells were incubated with FTY720, chloroquine or rapamycin for 8 and 24 hours. CD74 MFI values were determined by CD74-FITC staining and flow cytometry.

[7] = system: RII isoform of PKA compared with the RI isoform; settings: cited from earlier work
[8] = system: MCL cell lines; assay: Cytotoxicity of OSU-2S; format: cell-based
[9] = biological target: DDD of the RII form of PKA (RIIα dimers) (Homo sapiens, UniProt P13861); settings: read-out: binding constant for DDD; cited from earlier work
Sequence of DDD of the RII form of PKA (RIIα dimers) (P13861 whole entry): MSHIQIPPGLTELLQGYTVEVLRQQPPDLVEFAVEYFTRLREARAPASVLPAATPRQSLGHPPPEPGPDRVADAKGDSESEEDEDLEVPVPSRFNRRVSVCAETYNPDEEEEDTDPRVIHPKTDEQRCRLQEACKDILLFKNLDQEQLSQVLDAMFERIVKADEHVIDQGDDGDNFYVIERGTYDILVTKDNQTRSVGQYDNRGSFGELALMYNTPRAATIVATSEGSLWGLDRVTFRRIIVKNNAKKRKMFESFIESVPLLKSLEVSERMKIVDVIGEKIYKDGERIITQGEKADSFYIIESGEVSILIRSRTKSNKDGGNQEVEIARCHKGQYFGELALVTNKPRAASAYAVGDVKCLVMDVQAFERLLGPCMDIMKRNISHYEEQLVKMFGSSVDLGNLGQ

[10] = system: CD74 in Jeko-1, Mino, UPN-1 and Z-138 cells; assay: Confocal microscopy of total CD74 with rhodamine-conjugated milatuzumab; format: cell-based, human; settings: Jeko-1 and Mino cells, non-immobilized, 5 μg/ml
Procedure: Cells were stained with an anti-CD74 antibody (FITC conjugated and CD74 MFI was measured by flow cytometry. Representative histograms summarizing the MFI of untreated and treated Jeko-1, Mino, UPN-1 and Z-138 cells are shown. (C) The amount of total cellular CD74 was determined by confocal microscopy. Jeko-1, Mino, UPN-1 and Z-138 cells were treated with FTY720 at the indicated doses, chloroquine (40 μM), rapamycin (10 μM) or the combination of FTY720 and chloroquine, for 4, 8 and 24 hours. CD74 fluorescence intensity was measured in 4 microscopic fields and integrated intensity was averaged relative to the number of cells per field (˜180-220 cells per condition).
MCL cells for confocal fluorescence microscopy were fixed and stained as previously described (Alinari et al., 2011, Blood 117:4530-41). Briefly, after exposure to drugs, cells were made adherent on a microscope slide by centrifugation. Immediately after cytospin, cells were fixed in cold acetone for two minutes. For CD74 immunofluorescence, the cells were incubated with rhodamine-conjugated milatuzumab. […] Nuclei were stained blue with DAPI (Vector laboratories, Burlingame, Calif.). […] For quantification, 4 microscopic fields per slide were analyzed. Nuclei count was performed using an edge constrained marker-controlled watershed for iterative fluorescence microscopic cell image splitting.

[11] = system: HT29; assay: Flow cytometry of CD74, HLA-DR, CEACAM5 with directly labeled MAbs, with and without IFN-γ; format: cell-based
Procedure: (§2) Expression of CD74, HLA-DR, and carcinoembryonic antigen (CEACAM5) was determined in untreated cells and cells exposed to 200 U of IFN-γ for 48 h by flow cytometry. Cells were stained with directly labeled MAbs in comparison to a directly labeled human IgG control. Antibodies were labeled using ALEXA FLUOR® 488 (Invitrogen, Carlsbad, Calif.). For determination of cytoplasmic antigen expression, cells were permeabilized prior to staining using the BD CYTOFIX/CYTOPERM™ kit (BD Biosciences, San Jose, Calif.).

[12] = system: Moser; assay: as above; format: cell-based
Procedure: as §2

[13] = system: U87; assay: as above; format: cell-based
Procedure: as §2

[14] = system: KMS11; assay: as above; format: cell-based
Procedure: as §2

[15] = system: CAG; assay: as above; format: cell-based
Procedure: as §2

[16] = system: Lovo; assay: as above; format: cell-based
Procedure: as §2

[17] = system: Panc-1; assay: as above; format: cell-based
Procedure: as §2

[18] = system: FSCCL; assay: as above; format: cell-based
Procedure: as §2

[19] = system: RL; assay: as above; format: cell-based
Procedure: as §2

[20] = system: U118; assay: as above; format: cell-based
Procedure: as §2

[21] = system: LS174T; assay: as above; format: cell-based
Procedure: as §2

[22] = system: TU118; assay: as above; format: cell-based
Procedure: as §2

[23] = system: Aspc-1; assay: as above; format: cell-based
Procedure: as §2

[24] = system: Capan-1; assay: as above; format: cell-based
Procedure: as §2

[25] = system: BxPC-3; assay: as above; format: cell-based
Procedure: as §2

## CCN(CC)CCCC(C)Nc1ccnc2cc(Cl)ccc12 (stereo not drawn) [chloroquine]
[1]
  ultrastructural morphologic changes (TEM): increased accumulation of autophagosomes
[2]
  LC3 fluorescence intensity: statistically significant increase in LC3 fluorescence intensity
[3]
  p62 levels: significant increase of p62 levels
[4]
  acridine orange green fluorescence (FL1): slight increase of green fluorescence
[5]
  LC3-II levels: significant increase in LC3-II levels; also recorded: increased levels of LC3-II
[6]
  CD74 MFI (surface): slight increase of CD74 MFI

## QIEYVAKQIVDYAIHQA [SuperAKAP-IS]
[7]
  selectivity for RII over RI isoform of PKA: five order of magnitude higher selectivity

## CCC[C@@](N)(CO)CCc1ccc(OCCCCCC(C)C)cc1 [OSU-2S, (S)-2-amino-2-(4-[(6-methylheptyl)-oxy]phenethyl)pentan-1-ol]
[8]; MCL cell lines
  cytotoxicity: exhibited cytotoxicity
[8]; MCL cell lines and primary cells
  cytotoxic activity: significant cytotoxic activity
[5]; Jeko-1, Mino and Z-138 cell lines, 24 hours, Western blotting
  LC3-II levels: increased levels of LC3-II

## QIEYLAKQIVDNAIQQA [AKAP-IS]
[9]
  Kd: 0.4 nM

## rhodamine-conjugated milatuzumab: fluorescence labeled milatuzumab made with NHS-rhodamine
[10]
  internalization of CD74: rapid internalization of CD74

## Labetuzumab: anti-CEA antibody, directly labeled
[11]; HT29
  % change of cell surface expression with IFNγ: 213.5%
  % change of cytoplasmic expression with IFNγ: 122.7%
[11]; HT29 + IFNγ 200 U, 48 h
  Cell surface expression (staining with directly labeled MAb): 34.9
[11]; HT29, without IFN-γ
  Cell surface expression (staining with directly labeled MAb): 11.1
[12]; Moser
  % change of cell surface expression with IFNγ: 20.9%
  % change of cytoplasmic expression with IFNγ: 41.8%
[12]; Moser + IFNγ 200 U, 48 h
  Cell surface expression (staining with directly labeled MAb): 77.2
[12]; Moser, without IFN-γ
  Cell surface expression (staining with directly labeled MAb): 63.8
[13]; U87
  % change of cell surface expression with IFNγ: 23.8%
  % change of cytoplasmic expression with IFNγ: 79.0%
[13]; U87 + IFNγ 200 U, 48 h
  Cell surface expression (staining with directly labeled MAb): 4.5
[13]; U87, without IFN-γ
  Cell surface expression (staining with directly labeled MAb): 3.7
[14]; KMS11
  % change of cell surface expression with IFNγ: 7.1%
  % change of cytoplasmic expression with IFNγ: −11.4%
[14]; KMS11 + IFNγ 200 U, 48 h
  Cell surface expression (staining with directly labeled MAb): 2.3
[14]; KMS11, without IFN-γ
  Cell surface expression (staining with directly labeled MAb): 2.1
[15]; CAG
  % change of cell surface expression with IFNγ: 3.0%
  % change of cytoplasmic expression with IFNγ: 27.4%
[15]; CAG + IFNγ 200 U, 48 h
  Cell surface expression (staining with directly labeled MAb): 5.2
[15]; CAG, without IFN-γ
  Cell surface expression (staining with directly labeled MAb): 5.0
[16]; Lovo
  % change of cell surface expression with IFNγ: 48.6%
  % change of cytoplasmic expression with IFNγ: 52.4%
[16]; Lovo + IFNγ 200 U, 48 h
  Cell surface expression (staining with directly labeled MAb): 84.4
[16]; Lovo, without IFN-γ
  Cell surface expression (staining with directly labeled MAb): 56.8
[17]; Panc-1
  % change of cell surface expression with IFNγ: 6.3%
  % change of cytoplasmic expression with IFNγ: 161.2%
[17]; Panc-1 + IFNγ 200 U, 48 h
  Cell surface expression (staining with directly labeled MAb): 4.4
[17]; Panc-1, without IFN-γ
  Cell surface expression (staining with directly labeled MAb): 4.1
[18]; FSCCL
  % change of cell surface expression with IFNγ: 7.6%
  % change of cytoplasmic expression with IFNγ: 100.7%
[18]; FSCCL + IFNγ 200 U, 48 h
  Cell surface expression (staining with directly labeled MAb): 2.8
[18]; FSCCL, without IFN-γ
  Cell surface expression (staining with directly labeled MAb): 2.6
[19]; RL
  % change of cell surface expression with IFNγ: 17.3%
  % change of cytoplasmic expression with IFNγ: 37.9%
[19]; RL + IFNγ 200 U, 48 h
  Cell surface expression (staining with directly labeled MAb): 2.9
[19]; RL, without IFN-γ
  Cell surface expression (staining with directly labeled MAb): 2.4
[20]; U118
  % change of cell surface expression with IFNγ: 2.4%
  % change of cytoplasmic expression with IFNγ: 78.2%
[20]; U118 + IFNγ 200 U, 48 h
  Cell surface expression (staining with directly labeled MAb): 5.6
[20]; U118, without IFN-γ
  Cell surface expression (staining with directly labeled MAb): 5.5
[21]; LS174T
  % change of cell surface expression with IFNγ: 167.9%
  % change of cytoplasmic expression with IFNγ: 195.9%
[21]; LS174T + IFNγ 200 U, 48 h
  Cell surface expression (staining with directly labeled MAb): 163.7
[21]; LS174T, without IFN-γ
  Cell surface expression (staining with directly labeled MAb): 61.1
[22]; TU118
  % change of cell surface expression with IFNγ: 13.0%
  % change of cytoplasmic expression with IFNγ: 115.5%
[22]; TU118 + IFNγ 200 U, 48 h
  Cell surface expression (staining with directly labeled MAb): 5.29
[22]; TU118, without IFN-γ
  Cell surface expression (staining with directly labeled MAb): 4.68
[23]; Aspc-1
  % change of cell surface expression with IFNγ: 26.3%
  % change of cytoplasmic expression with IFNγ: 53.2%
[23]; Aspc-1 + IFNγ 200 U, 48 h
  Cell surface expression (staining with directly labeled MAb): 66.8
[23]; Aspc-1, without IFN-γ
  Cell surface expression (staining with directly labeled MAb): 52.9
[24]; Capan + IFNγ 200 U, 48 h
  Cell surface expression (staining with directly labeled MAb): 48.8
[24]; Capan-1
  % change of cell surface expression with IFNγ: −15.1%
  % change of cytoplasmic expression with IFNγ: 8.7%
[24]; Capan-1, without IFN-γ
  Cell surface expression (staining with directly labeled MAb): 57.5
[25]; BxPC-3
  % change of cell surface expression with IFNγ: 25.6%
  % change of cytoplasmic expression with IFNγ: 52.7%
[25]; BxPC-3 + IFNγ 200 U, 48 h
  Cell surface expression (staining with directly labeled MAb): 7.0
[25]; BxPC-3, without IFN-γ
  Cell surface expression (staining with directly labeled MAb): 5.6
